Laboratory results: patent US20180141939A1, “SOLID FORMS OF A BET INHIBITOR” (Gilead Sciences, Inc., priority 2016, published 2018)
Counter-ions that a name gives are not always drawn.

Key:
Format in all cases: physicochemical
[1] = Aqueous vapor stress (high humidity stress, about 85% RH), deliquescence; settings: for deliquescence when stressed at about 85% RH: about 24 h where stated; for deliquescence at elevated RH: elevated relative humidity
Experimental: Crystalline forms of Compound I were analyzed by at least one of X-ray powder diffraction (XRPD), differential scanning calorimetry (DSC), thermogravimetric analysis (TGA), dynamic vapor sorption (DVS), solution proton nuclear magnetic resonance spectroscopy (^1H NMR), KF titration, and aqueous vapor stress experiments. XRPD patterns of Compound I were collected with a PANalytical X'Pert PRO MPD diffractometer using mostly the following experimental setting: 45 kV, 40 mA, Kα1=1.5406 Å, scan range 2-40° 2θ, step size 0.0167° 2θ. The DSC analysis was conducted on a TA Instruments Q2000 differential scanning calorimeter using 10° C./min heating rate over the 20° C. to 250° C. temperature range or above. The TGA analysis was conducted on a TA Instruments 2950 thermogravimetric analyzer using a 10° C./min heating rate over the 20° C. to 350° C. temperature range. ^1H NMR spectra were acquired with an Agilent DD2-400 spectrometer using DMSO-d6 with tetramethylsilane (TMS). KF analysis was performed using a Mettler Toledo DL39 Karl Fischer titrator with a Stromboli drying oven attachment set at about 110° C. Aqueous vapor stress experiments were conducted by placing a sample in a 85% RH jar for a specified duration.

[2] = Dynamic vapor sorption (DVS) moisture uptake; settings: for hygroscopicity (DVS analysis): classification in words; for moisture uptake (DVS): at about 90% RH
[3] = Relative stability of solid forms (competitive slurries); settings: for thermodynamic / physical stability of the solid form: statement in words
[4] = Kinetic aqueous solubility / solubility in water of salt and co-crystal forms

deliquescence when stressed at about 85% RH [1]	kinetic aqueous solubility [4]	Structure (SMILES)	other results
does not deliquesce	about 15 mg/mL	Cc1noc(C)c1-c1cc(C(O)(c2ccccn2)c2ccccn2)c2nc(C3CC3)[nH]c2c1 [Compound I tartrate Material A, (2-cyclopropyl-6-(3,5-dimethylisoxazol-4-yl)-1H-benzo[d]imidazol-4-yl)di(pyridin-2-yl)methanol]	
no evidence of deliquescence	about 4 mg/mL	Cc1noc(C)c1-c1cc(C(O)(c2ccccn2)c2ccccn2)c2nc(C3CC3)[nH]c2c1 [Compound I sulfate Material A, (2-cyclopropyl-6-(3,5-dimethylisoxazol-4-yl)-1H-benzo[d]imidazol-4-yl)di(pyridin-2-yl)methanol]	
does not deliquesce		Cc1noc(C)c1-c1cc(C(O)(c2ccccn2)c2ccccn2)c2nc(C3CC3)[nH]c2c1 [Compound I gentisate Material A, (2-cyclopropyl-6-(3,5-dimethylisoxazol-4-yl)-1H-benzo[d]imidazol-4-yl)di(pyridin-2-yl)methanol]	
	about 5 mg/mL	Cc1noc(C)c1-c1cc(C(O)(c2ccccn2)c2ccccn2)c2nc(C3CC3)[nH]c2c1 [Compound I mesylate Material A, (2-cyclopropyl-6-(3,5-dimethylisoxazol-4-yl)-1H-benzo[d]imidazol-4-yl)di(pyridin-2-yl)methanol]	deliquescence at elevated RH [1]: shows evidence of deliquescence
does not show any signs of deliquescence	about 1 mg/mL	Cc1noc(C)c1-c1cc(C(O)(c2ccccn2)c2ccccn2)c2nc(C3CC3)[nH]c2c1 [Compound I edisylate Material A, (2-cyclopropyl-6-(3,5-dimethylisoxazol-4-yl)-1H-benzo[d]imidazol-4-yl)di(pyridin-2-yl)methanol]	
	about 4 mg/mL	Cc1noc(C)c1-c1cc(C(O)(c2ccccn2)c2ccccn2)c2nc(C3CC3)[nH]c2c1 [mixture of Compound I sulfate Material A and Compound I sulf] [(2-cyclopropyl-6-(3,5-dimethylisoxazol-4-yl)-1H-benzo[d]imidazol-4-yl)di(pyridin-2-yl)methanol]	

Second part, the molecule before the results:

Structure (SMILES)	deliquescence when stressed at about 85% RH [1]	kinetic aqueous solubility [4]	other results
Cc1noc(C)c1-c1cc(C(O)(c2ccccn2)c2ccccn2)c2nc(C3CC3)[nH]c2c1 [Compound I napsylate Material A, (2-cyclopropyl-6-(3,5-dimethylisoxazol-4-yl)-1H-benzo[d]imidazol-4-yl)di(pyridin-2-yl)methanol]	does not deliquesce		
Cc1noc(C)c1-c1cc(C(O)(c2ccccn2)c2ccccn2)c2nc(C3CC3)[nH]c2c1 [Compound I phosphate Form II, (2-cyclopropyl-6-(3,5-dimethylisoxazol-4-yl)-1H-benzo[d]imidazol-4-yl)di(pyridin-2-yl)methanol]			hygroscopicity (DVS analysis) [2]: moderately hygroscopic; relative stability in competitive slurries with Compound I phosphate Form I ([3]; MeOH/IPA, MeOH/EtOAc or MeOH/IPAc, overnight slurry at RT): less stable than Compound I phosphate Form I at ambient conditions
Cc1noc(C)c1-c1cc(C(O)(c2ccccn2)c2ccccn2)c2nc(C3CC3)[nH]c2c1 [Compound I besylate Material A, (2-cyclopropyl-6-(3,5-dimethylisoxazol-4-yl)-1H-benzo[d]imidazol-4-yl)di(pyridin-2-yl)methanol]	does not show any signs of deliquescence	about 1 mg/mL	
Cc1noc(C)c1-c1cc(C(O)(c2ccccn2)c2ccccn2)c2nc(C3CC3)[nH]c2c1 [Compound I xinafoate Form I, (2-cyclopropyl-6-(3,5-dimethylisoxazol-4-yl)-1H-benzo[d]imidazol-4-yl)di(pyridin-2-yl)methanol]	does not deliquesce		
Cc1noc(C)c1-c1cc(C(O)(c2ccccn2)c2ccccn2)c2nc(C3CC3)[nH]c2c1 [Compound I mesylate Material C, (2-cyclopropyl-6-(3,5-dimethylisoxazol-4-yl)-1H-benzo[d]imidazol-4-yl)di(pyridin-2-yl)methanol]		about 13 mg/mL	deliquescence at elevated RH [1]: a tendency to deliquesce
Cc1noc(C)c1-c1cc(C(O)(c2ccccn2)c2ccccn2)c2nc(C3CC3)[nH]c2c1 [Compound I sulfate Material B, (2-cyclopropyl-6-(3,5-dimethylisoxazol-4-yl)-1H-benzo[d]imidazol-4-yl)di(pyridin-2-yl)methanol]	no evidence of deliquescence	about 4 mg/mL	
Cc1noc(C)c1-c1cc(C(O)(c2ccccn2)c2ccccn2)c2nc(C3CC3)[nH]c2c1 [Compound I HCl Material B, (2-cyclopropyl-6-(3,5-dimethylisoxazol-4-yl)-1H-benzo[d]imidazol-4-yl)di(pyridin-2-yl)methanol]	evidence of deliquescence	about 6 mg/mL	
Cc1noc(C)c1-c1cc(C(O)(c2ccccn2)c2ccccn2)c2nc(C3CC3)[nH]c2c1 [Compound I mesylate Material G, (2-cyclopropyl-6-(3,5-dimethylisoxazol-4-yl)-1H-benzo[d]imidazol-4-yl)di(pyridin-2-yl)methanol]			moisture uptake (DVS) [2]: about 25%; hygroscopicity (DVS analysis) [2]: very hygroscopic
Cc1noc(C)c1-c1cc(C(O)(c2ccccn2)c2ccccn2)c2nc(C3CC3)[nH]c2c1 [Compound I tosylate Form I, (2-cyclopropyl-6-(3,5-dimethylisoxazol-4-yl)-1H-benzo[d]imidazol-4-yl)di(pyridin-2-yl)methanol]	does not show any evidence of deliquescence	about 3 mg/mL	
Cc1noc(C)c1-c1cc(C(O)(c2ccccn2)c2ccccn2)c2nc(C3CC3)[nH]c2c1 [Compound I phosphate Form V, (2-cyclopropyl-6-(3,5-dimethylisoxazol-4-yl)-1H-benzo[d]imidazol-4-yl)di(pyridin-2-yl)methanol]			relative stability in competitive slurries with Compound I phosphate Form I ([3]; MeOH/EtOAc solvent system): complete conversion of Compound I phosphate Form V to Compound I phosphate Form I
Cc1noc(C)c1-c1cc(C(O)(c2ccccn2)c2ccccn2)c2nc(C3CC3)[nH]c2c1 [Compound I Form I, (2-cyclopropyl-6-(3,5-dimethylisoxazol-4-yl)-1H-benzo[d]imidazol-4-yl)di(pyridin-2-yl)methanol]			moisture uptake (DVS) [2]: about 0.4%; hygroscopicity (DVS analysis) [2]: slightly hygroscopic; thermodynamic / physical stability of the solid form [3]: most thermodynamically stable form of Compound I
Cc1noc(C)c1-c1cc(C(O)(c2ccccn2)c2ccccn2)c2nc(C3CC3)[nH]c2c1 [Compound I Form II, (2-cyclopropyl-6-(3,5-dimethylisoxazol-4-yl)-1H-benzo[d]imidazol-4-yl)di(pyridin-2-yl)methanol]			thermodynamic / physical stability of the solid form [3]: unstable mono-IPA solvate that may convert to Compound I Form I at ambient conditions
Cc1noc(C)c1-c1cc(C(O)(c2ccccn2)c2ccccn2)c2nc(C3CC3)[nH]c2c1 [Compound I phosphate Form III, (2-cyclopropyl-6-(3,5-dimethylisoxazol-4-yl)-1H-benzo[d]imidazol-4-yl)di(pyridin-2-yl)methanol]			moisture uptake (DVS) [2]: about 0.7%; hygroscopicity (DVS analysis) [2]: slightly hygroscopic; solubility ([4]; water): ~6000 µg/mL
Cc1noc(C)c1-c1cc(C(O)(c2ccccn2)c2ccccn2)c2nc(C3CC3)[nH]c2c1 [Compound I phosphate Form IV, (2-cyclopropyl-6-(3,5-dimethylisoxazol-4-yl)-1H-benzo[d]imidazol-4-yl)di(pyridin-2-yl)methanol]			relative stability in competitive slurries with Compound I phosphate Form I ([3]; MeOH/EtOAc solvent system): complete conversion of Compound I phosphate Form IV to Compound I phosphate Form I
